From US8481524B2, “c-MET protein kinase inhibitors” (Vertex Pharmaceuticals Incorporated, priority 2007, dated 2013) come the findings set out here.

The structures appear in SMILES notation.

Usually IC50 stands for the concentration that inhibits the measured activity by half. The low end stands for inhibition by little substance, the high end for a need for much substance.

The experiment concerns c-Met in Snu5 gastric carcinoma cells. Nature of the experiment: Inhibition of c-Met activity in Snu5 gastric carcinoma cells (Snu5-AP1-Luc-Pest luciferase signal). Format: cell-based, human. As to conditions: Homo sapiens, SNU-5; Snu5-AP1-Luc-Pest cells, 6 hours, Steady Glo luminescence. An excerpt: Compounds of the invention were also screened for their ability to inhibit the Luciferase-induced signal in an engineered Snu5 cell line. Snu5 [obtained from American Type Culture Collection (Catalog number CRL-5973)] is a human gastric carcinoma known to overexpress c-Met, which is constitutively active. The cell line was transduced with the retrovirus, pCLPCX, which contains a genetic construct consisting of 6×AP1 promoter response elements and a luciferase gene having a C-terminal PEST sequence (proteolytic signal from mouse ornithine decarboxylase, which reduces the half-life of the luciferase). The constitutively active cMet activates cellular pathways (principally MAP kinase), resulting in AP-1-induced transcription of luciferase-PEST and translation into the final product, the activity of which is quantifiable as a chemiluminescent readout upon the addition of luciferin (Steady-Glo from Promega.). Residual luminescence is strongly correlated to the inhibition of c-Met. A stable cell line was obtained by selecting the new cell line (Snu5-AP1-Luc-Pest) with puromycin. The cells were grown in complete media [Iscove's media (Invitrogen) containing 10% fetal bovine serum (FBS, Hyclone) and penicillin/gentamycin (Invitrogen)]. Compounds of the invention were dissolved in DMSO to make 10 mM initial stock solutions. Serial dilutions in DMSO were then made and transferred to complete medium to make a 10× solution. The Snu5-AP1-Luc-Pest cells were counted and diluted to 200,000-cells/mL solution. The cells (90 μL) were added to each well in a 96-well black with clear bottom plate (Costar). Then 10 μL of the 10× compound solution was added to the cells in triplicate. The plates were incubated in a 37° C./5% CO2 incubator. After 6 hours, 50 μL of the Steady Glo reagent (Promega) was added to each well and placed on a plate shaker for 5 minutes to ensure that the cells were completely lysed. The plate was read on a 1450 Microbeta Liquid Scintillation and Luminescence Counter (Perkin-Elmer). The IC50s were calculated using a 4-parameter fit using the graphing software Prism (GraphPad).
The compound `Cc1ccc(-n2nnnc2-c2cc(-c3cnn(C4CCNCC4)c3)cnc2N)cc1F` [Compound 43] came in with an IC50 of 100 to 1000 nM.
For `COc1ccc(-n2nnnc2-c2cc(-c3cn(C4CCCNCC4)nc3C)cnc2N)c(F)c1F` (stereo not drawn) [Compound 44] the value was not above 100 nM.
For `Cc1ccc(-n2nnnc2-c2cc(-c3cn(C4CCNCC4)nc3C)cnc2N)c(F)c1F` [Compound 45] the value was not above 100 nM.
Under `Cc1ccc(-n2nnnc2-c2cc(-c3cn(C4CCCNCC4)nc3C)cnc2N)c(F)c1F` (stereo not drawn) [Compound 46] stands not above 100 nM; under `Cc1ccc(-n2nnnc2-c2cc(-c3cn(C4CCNCC4)nc3C(F)(F)F)cnc2N)c(F)c1F` [Compound 47], 100 to 1000 nM.
On to `Cc1ccc(-n2nnnc2-c2cc(-c3cnn(C4C[C@H]5CNC[C@H]5C4)c3)cnc2N)c(F)c1F` (stereo partly drawn) [Compound 48], for which the IC50 was 100 to 1000 nM.
Under `COc1ccc(-n2nnnc2-c2cc(-c3cnn(C4CCNCC4)c3)cnc2N)c(F)c1` [Compound 50] stands 100 to 1000 nM; under `COc1ccc(-n2nnnc2-c2cc(-c3cc4c(s3)CCNCC4)cnc2N)c(F)c1` [Compound 51], 100 to 1000 nM; under `COc1cc(F)c(-n2nnnc2-c2cc(-c3cc4c(s3)CCNCC4)cnc2N)c(F)c1` [Compound 54], 100 to 1000 nM.
Under `COCc1ccc(-n2nnnc2-c2cc(-c3cnn(C4CCNCC4)c3)cnc2N)c(F)c1F` [Compound 65] stands 100 to 1000 nM.
Take `COc1ccc(-n2nnnc2-c2cc(-c3cc(C)c(C4CCCNC4)s3)cnc2N)c(F)c1F` (stereo not drawn) [Compound 66]: the IC50 is not above 100 nM.
For `Cc1cc(-c2cnc(N)c(-c3nnnn3-c3ccc(C)c(F)c3F)c2)sc1C1CCCNC1` (stereo not drawn) [Compound 67] the value was not above 100 nM.
